Data on three compounds can be found in PubChem BioAssay AID1259407 (Chemical Carcinogenesis Research Information System (CCRIS), 2018).

The test system of this data set is CCRIS mutagenicity, Ames/micronucleus/aberration tests. The experiment in a line: CCRIS mutagenicity studies.

Calls of active or inactive are those of the source. No rule for the calls is given here.

Take `c1ccc2c(c1)-c1ccc3ccccc3c1C1NC21` (centres undefined): the mutagenic call reads like this: (Test System: AMES SALMONELLA TYPHIMURIUM, Strain/Indicator: TA98, Metabolic Activation: NONE, Method: PREINCUBATION (KCL-CONTAINING OR KCL-FREE MEDIA)) “active; positive”; (Test System: AMES SALMONELLA TYPHIMURIUM, Strain/Indicator: TA100, Metabolic Activation: NONE, Method: PREINCUBATION (KCL-CONTAINING MEDIUM)) “active; positive”; (Test System: AMES SALMONELLA TYPHIMURIUM, Strain/Indicator: TA100, Metabolic Activation: NONE, Method: PREINCUBATION (KCL-FREE MEDIUM)) “active; positive”.
Turning to `Cc1cccc(Nc2ccncc2S(=O)(=O)NC(=O)NC(C)C)c1`, the mutagenic call reads like this: (Test System: AMES SALMONELLA TYPHIMURIUM, Strain/Indicator: TA98, Metabolic Activation: NONE, Method: STANDARD PLATE) “inactive; negative”; (Test System: AMES SALMONELLA TYPHIMURIUM, Strain/Indicator: TA98, Metabolic Activation: RAT, LIVER, S-9, Method: STANDARD PLATE) “inactive; negative”; (Test System: AMES SALMONELLA TYPHIMURIUM, Strain/Indicator: TA100, Metabolic Activation: NONE, Method: STANDARD PLATE) “inactive; negative”; (Test System: AMES SALMONELLA TYPHIMURIUM, Strain/Indicator: TA100, Metabolic Activation: RAT, LIVER, S-9, Method: STANDARD PLATE) “inactive; negative”; (Test System: AMES SALMONELLA TYPHIMURIUM, Strain/Indicator: TA1535, Metabolic Activation: NONE, Method: STANDARD PLATE) “inactive; negative”; (Test System: AMES SALMONELLA TYPHIMURIUM, Strain/Indicator: TA1535, Metabolic Activation: RAT, LIVER, S-9, Method: STANDARD PLATE) “inactive; negative”. Further, the mutagenic call was “inactive; negative” (Test System: AMES SALMONELLA TYPHIMURIUM, Strain/Indicator: TA1537, Metabolic Activation: NONE, Method: STANDARD PLATE); “inactive; negative” (Test System: AMES SALMONELLA TYPHIMURIUM, Strain/Indicator: TA1537, Metabolic Activation: RAT, LIVER, S-9, Method: STANDARD PLATE); “inactive; negative” (Test System: E. COLI, Strain/Indicator: WP2 UVRA, Metabolic Activation: NONE, Method: STANDARD PLATE); “inactive; negative” (Test System: E. COLI, Strain/Indicator: WP2 UVRA, Metabolic Activation: RAT, LIVER, S-9, Method: STANDARD PLATE).
With `CCCCNC(=O)OCC#CI`, the mutagenic call was “inactive; negative” (End Point: Ames Salmonella typhimurium, Test System: TA98, Metabolic Activation: S-9, Method: Not specified); “inactive; negative” (End Point: Ames Salmonella typhimurium, Test System: TA100, Metabolic Activation: S-9, Method: Not specified); “inactive; negative” (End Point: Ames Salmonella typhimurium, Test System: TA1535, Metabolic Activation: S-9, Method: Not specified); “inactive; negative” (End Point: Ames Salmonella typhimurium, Test System: TA1537, Metabolic Activation: S-9, Method: Not specified); “inactive; negative” (End Point: Ames Salmonella typhimurium, Test System: TA1538, Metabolic Activation: S-9, Method: Not specified); “inactive; negative” (End Point: In vivo micronucleus, Test System: Bone marrow polychromatic erythrocytes, Species: Mouse, Strain/Sex: CD-1/Males and females, Route: Oral). Further, the mutagenic call is “inactive; negative” (Test System: Ames Salmonella typhimurium, Strain/Indicator: TA98, Metabolic Activation: None, Method: Not specified); “inactive; negative” (Test System: Ames Salmonella typhimurium, Strain/Indicator: TA100, Metabolic Activation: None, Method: Not specified); “inactive; negative” (Test System: Ames Salmonella typhimurium, Strain/Indicator: TA1535, Metabolic Activation: None, Method: Not specified); “inactive; negative” (Test System: Ames Salmonella typhimurium, Strain/Indicator: TA1537, Metabolic Activation: None, Method: Not specified); “inactive; negative” (Test System: Ames Salmonella typhimurium, Strain/Indicator: TA1538, Metabolic Activation: None, Method: Not specified).
